Values of other authors as cited in PMC10544023, “Oxetanes in Drug Discovery Campaigns” (Journal of Medicinal Chemistry, 2023).

Legend:
[1] = test system: T- versus B-cells; set-up: method as in PMID 32292557; conditions: selectivity of T- versus B-cells; ref 35a
[2] = test system: Cbl-b; set-up: method as in ref 49 = [49]; a Liang J.; Jakalian A.; Lambrecht M. J.; Larouche-Gauthier R.; Huestis M.; Ung M. U.; Wang X.; Yadav A.; Zbieg J. R.; Broccatelli F. Lactams as Cbl-b Inhibitors , WO Patent Appl. no. WO20221; conditions: read-out: Cbl-b inhibitor IC50
[3] = test system: rat; set-up: method as in ref 33a = [33]; a Crawford J. J.; Zhang H. In ACS Symposium Series; American Chemical Society , 2019; Vol. 1332 , pp 239 – 266 . b For an overview of all clinical trials and further investigations, see: Drug Bank; conditions: rat pilot study; ref 33a
[4] = test system: dog; set-up: method as in ref 33a = [33]; a Crawford J. J.; Zhang H. In ACS Symposium Series; American Chemical Society , 2019; Vol. 1332 , pp 239 – 266 . b For an overview of all clinical trials and further investigations, see: Drug Bank; conditions: dog pilot study; ref 33a
[5] = test system: c-KIT (V654A); set-up: method as in ref 49 = [49]; a Liang J.; Jakalian A.; Lambrecht M. J.; Larouche-Gauthier R.; Huestis M.; Ung M. U.; Wang X.; Yadav A.; Zbieg J. R.; Broccatelli F. Lactams as Cbl-b Inhibitors , WO Patent Appl. no. WO20221
[6] = test system: hERG; set-up: method as in PMID 24900569; conditions: ref 37a
[7] = amine nitrogen; ref 37a
[8] = test system: LRRK2; set-up: method as in ref 49 = [49]; a Liang J.; Jakalian A.; Lambrecht M. J.; Larouche-Gauthier R.; Huestis M.; Ung M. U.; Wang X.; Yadav A.; Zbieg J. R.; Broccatelli F. Lactams as Cbl-b Inhibitors , WO Patent Appl. no. WO20221; conditions: read-out: LRRK2 inhibitor IC50
[9] = test system: LRRK2 (WT); set-up: method as in ref 49 = [49]; a Liang J.; Jakalian A.; Lambrecht M. J.; Larouche-Gauthier R.; Huestis M.; Ung M. U.; Wang X.; Yadav A.; Zbieg J. R.; Broccatelli F. Lactams as Cbl-b Inhibitors , WO Patent Appl. no. WO20221; conditions: read-out: LRRK2 inhibitor (WT) IC50
[10] = test system: EZH2; set-up: method as in ref 49 = [49]; a Liang J.; Jakalian A.; Lambrecht M. J.; Larouche-Gauthier R.; Huestis M.; Ung M. U.; Wang X.; Yadav A.; Zbieg J. R.; Broccatelli F. Lactams as Cbl-b Inhibitors , WO Patent Appl. no. WO20221; conditions: read-out: EZH2 inhibitor IC50
[11] = test system: PDGFRα D842V; set-up: method as in ref 49 = [49]; a Liang J.; Jakalian A.; Lambrecht M. J.; Larouche-Gauthier R.; Huestis M.; Ung M. U.; Wang X.; Yadav A.; Zbieg J. R.; Broccatelli F. Lactams as Cbl-b Inhibitors , WO Patent Appl. no. WO20221
[12] = test system: KIT D816V; set-up: method as in ref 49 = [49]; a Liang J.; Jakalian A.; Lambrecht M. J.; Larouche-Gauthier R.; Huestis M.; Ung M. U.; Wang X.; Yadav A.; Zbieg J. R.; Broccatelli F. Lactams as Cbl-b Inhibitors , WO Patent Appl. no. WO20221

In the case of `c1cn2cc(-c3ccc4cn[nH]c4c3)nc(Nc3ccc(N4CCN(C5COC5)CC4)cc3)c2n1` [oxetane on the 4-position], the T/B ratio [1] is given as 10.
In the case of `CC(C)[C@@H]1CN(C)CCN1Cc1cc2c(c(C(F)(F)F)c1)CN(c1cc(C3(Cc4nncn4C)COC3)cc(OC3CCCC3)n1)C2=O` [Genentech WO 2022/169997 A1], the IC50 [2] is listed as 5.5 nM.
For `C[C@H]1CN(C2COC2)CCN1c1ccc(Nc2cc(-c3ccnc(N4CCn5c(cc6c5CC(C)(C)C6)C4=O)c3CO)cn(C)c2=O)nc1` [Fenebrutinib, fenebrutinib], the “pKaH (predicted)” value (piperazine ring) is given as 6.3.
For `CCN1CCN(c2ccc(Nc3nc(-c4ccc5cn[nH]c5c4)cn4ccnc34)cc2)CC1` [4-ethyl-piperazine], the “calcd pKaH” value (piperazine analogues of entospletinib, ref 35a) is given as 8.0.
For `CN1CCN(c2ccc(Nc3cc(-c4cccc(N5CCc6c(sc7c6CC(C)(C)C7)C5=O)c4CO)cn(C)c3=O)nc2)CC1` [compound 4], the hepatotoxicity [3] is listed as “high hepatotoxicity” and the hepatotoxicity [4] is listed as “high hepatotoxicity”.
In the case of `Cn1ncc(-c2ccc(CNc3cc(-c4cnc5cc(OCCN6CC7(COC7)C6)ccn45)ncn3)cc2)n1` [Merck WO 2021/013864 A1], the IC50 [5] is given as 3.3 nM.
For `CCNC(=O)Nc1ccc(-c2nc3c(c(N4CCOC[C@@H]4C)n2)CCN(C2COC2)C3)cc1` [GDC-0349], the IC50 [6] is given as over 100000 nM and the pKaH [7] is given as 5.0.
For `O=C1NCCCOc2ccc3[nH]nc(c3c2)-c2cc(cc(N3CCC4(COC4)C3)c2)CO1`, the IC50 [8] is given as under 10 nM.
For `C[C@H](C(F)F)n1cc(Nc2ncc3cc(C#N)n([C@H]4COC[C@@H]4C)c3n2)c(OC2COC2)n1` [Sanofi WO 2022/263472 A1], the IC50 [9] is given as 1 nM.
For `Cc1ccc2ccc(N[C@H]3CC[C@H](CNc4ncc(C(F)(F)C(=O)NC5COC5)cn4)CC3)nc2c1Cl` [Novartis WO 2022/033492 A1], the IC50 [10] is listed as under 10 nM.
In the case of `C[C@](N)(c1ccc(F)cc1)c1cnc(N2CCN(c3ncnn4cc(-c5cnn(CC6COC6)c5)cc34)CC2)nc1` [Bluprint Medicines WO 2020/210293 A1], the IC50 [11] is given as under 4.5 nM and the IC50 [12] is given as under 4.5 nM.
